The values that follow come from paper PMC3508294 (Journal of medicinal chemistry, 2012).

The target in one assay is PABP1(437–488) (Homo sapiens, UniProt P11940). Description: SPR binding to immobilized PABP1. As to conditions: compounds injected at 50–10000 nM.
In assay [1] the target is T1, CARM1/PRMT4 (Mus musculus, UniProt Q9WVG6).
T1 sequence (Q9WVG6 1-608): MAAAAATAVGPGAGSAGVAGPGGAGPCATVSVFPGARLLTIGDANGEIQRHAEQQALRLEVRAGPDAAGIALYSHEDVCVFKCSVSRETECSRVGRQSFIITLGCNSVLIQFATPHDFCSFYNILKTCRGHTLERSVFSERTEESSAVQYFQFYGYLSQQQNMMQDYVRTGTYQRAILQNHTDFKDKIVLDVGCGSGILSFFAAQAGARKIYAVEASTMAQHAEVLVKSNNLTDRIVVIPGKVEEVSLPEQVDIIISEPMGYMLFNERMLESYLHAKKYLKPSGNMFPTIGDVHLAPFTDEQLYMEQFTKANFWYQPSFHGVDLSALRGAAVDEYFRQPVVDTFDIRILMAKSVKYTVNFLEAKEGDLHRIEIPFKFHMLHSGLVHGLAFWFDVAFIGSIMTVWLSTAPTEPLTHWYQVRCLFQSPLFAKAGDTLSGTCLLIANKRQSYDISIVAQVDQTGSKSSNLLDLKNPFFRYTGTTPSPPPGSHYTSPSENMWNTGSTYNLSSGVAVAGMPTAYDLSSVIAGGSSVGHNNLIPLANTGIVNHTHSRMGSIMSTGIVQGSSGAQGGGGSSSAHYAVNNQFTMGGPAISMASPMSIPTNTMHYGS
Kind of assay: CARM1 in vitro methylation assay, PABP1 as substrate. The class given is biochemical. As to conditions: 3, 6, 12, 25, 50 and 100 µM.

Another assay relates to calf thymus histone H3. Kind of assay: SPR binding to immobilized histone H3. As to conditions: compounds injected at 50–10000 nM.
For assay [2], the target named is T1, CARM1/PRMT4. Description: CARM1 in vitro methylation assay, histone H3 as substrate. As to conditions: 50 µM. The assay is classed as biochemical.
Assay [3] concerns the target human recombinant PRMT1 (hPRMT1) (Homo sapiens, UniProt Q99873). Kind of assay: PRMT1 in vitro inhibition assay, Npl3 as substrate. As to conditions: fixed doses of 10 µM and 50 µM.
The next assay concerns the target T2, CARM1 (Mus musculus, UniProt Q9WVG6).
T2 sequence (Q9WVG6 1-608): T1 sequence (Q9WVG6 1-608)
Kind of assay: SPR binding to immobilized full length GST-tagged CARM1. As to conditions: for Effect on affinity of substrate (H3 or PABP1) for CARM1/SAH complex: 4 µM compound, 200 µM SAH; for Interaction with immobilized CARM1 (in words): 50–10000 nM, in the presence and in absence of SAH.

Assay [4] has as its system CARM1 (fPABP1 methylation) in HEK293 cells. Description: Cellular methylation assay, Tet-inducible fPABP1 in HEK293 cells. The assay is classed as cell-based, human. As to conditions: HEK293, Tet-induced fPABP1; 50 µM compound; 24 h; anti-methyl-PABP1 immunoblot.
The target in assay [5] is T3, full length GST-tagged CARM1 (UniProt Q9WVG6 1-608).
T3 sequence (looked up): T1 sequence (Q9WVG6 1-608)
Kind of assay: SPR.

Chain of human recombinant PRMT1 (hPRMT1) (Q99873 whole entry): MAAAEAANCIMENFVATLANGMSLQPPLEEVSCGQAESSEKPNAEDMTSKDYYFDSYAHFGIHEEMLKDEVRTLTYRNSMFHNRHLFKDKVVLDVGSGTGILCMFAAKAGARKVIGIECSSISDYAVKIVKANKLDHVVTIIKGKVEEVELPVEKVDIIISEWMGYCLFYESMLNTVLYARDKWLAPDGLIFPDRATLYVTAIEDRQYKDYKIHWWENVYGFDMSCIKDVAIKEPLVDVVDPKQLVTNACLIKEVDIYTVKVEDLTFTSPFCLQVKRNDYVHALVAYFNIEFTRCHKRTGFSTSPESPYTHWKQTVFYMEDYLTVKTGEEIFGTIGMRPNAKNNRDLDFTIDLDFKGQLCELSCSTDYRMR

Take `O=c1oc2c(O)c(O)cc3c(=O)oc4c(O)c(O)cc1c4c23` [ellagic acid, reference compound]: at PABP1(437–488), the “Interaction with immobilized PABP1(437–488) (in words)” value is listed as “barely perceptible”.

As for `CCOC(=O)c1cc2cc(NC(=O)CNC(=O)Nc3ccc([N+](=O)[O-])cc3)ccc2[nH]1` [1k, ethyl 5-(2-(3-(4-nitrophenyl)ureido)acetamido)-1H-indole-2-carboxylate], the “Effect on CARM1 enzyme activity, dose dependence” value at CARM1/PRMT4 [1] is “marked and dose-dependent increase”. Moreover, in the assay on calf thymus histone H3, the “Interaction with immobilized histone H3 (in words)” value is listed as “no interaction”. The “Effect on CARM1-catalyzed H3 methylation (in words)” value on CARM1/PRMT4 [2] is “marked activation”. The “Interaction with immobilized PABP1(437–488) (in words)” value at PABP1(437–488) is reported as “no interaction”. Moreover, in assay [3], the “Inhibition of PRMT1” value is listed as “scarcely active”. In addition, on CARM1, the “Effect on affinity of substrate (H3 or PABP1) for CARM1/SAH complex” value (“Effect on affinity … for CARM1/SAH complex” for short) was “affects the affinity” and the “Interaction with immobilized CARM1 (in words)” value was “no interaction”.

For `O=C(Nc1ccc2c(O)cc(S(=O)(=O)O)cc2c1)Nc1ccc2c(O)cc(S(=O)(=O)O)cc2c1` [AMI-1, reference compound], the “Interaction with immobilized PABP1(437–488) (in words)” value on PABP1(437–488) is “barely perceptible”.

For `COC(=O)c1c[nH]c2ccc(NC(=O)CNC(=O)Nc3ccc(OC)cc3)cc12` [4e, methyl 5-(2-(3-(4-methoxyphenyl)ureido)acetamido)-1H-indole-3-carboxylate], in the assay with calf thymus histone H3, the “Interaction with immobilized histone H3 (in words)” value is “no interaction”. In addition, the “Interaction with immobilized PABP1(437–488) (in words)” value at PABP1(437–488) is recorded as “no interaction”. Moreover, on CARM1, the “Effect on affinity … for CARM1/SAH complex” value is recorded as “significantly affect the affinity” and the “Interaction with immobilized CARM1 (in words)” value is listed as “no interaction”.

Turning to `CCOC(=O)c1cc2cc(NC(=O)CNC(=O)Nc3ccc(C#N)cc3)ccc2[nH]1` [3g, ethyl 5-(2-(3-(4-cyanophenyl)ureido)acetamido)-1H-indole-2-carboxylate], in the assay with calf thymus histone H3, the “Interaction with immobilized histone H3 (in words)” value is recorded as “no interaction”. The “Methylation of fPABP1 in cells” value in assay [4] is “strongly increase the methylation”. In addition, the “Interaction with immobilized PABP1(437–488) (in words)” value on PABP1(437–488) is on record as “no interaction”. For the same molecule, on CARM1, the “Effect on affinity … for CARM1/SAH complex” value is recorded as “affects the affinity” and the “Interaction with immobilized CARM1 (in words)” value is “no interaction”.

Turning to `CCOC(=O)c1cc2cc(NC(=O)CNC(=O)Nc3ccc(C)cc3)ccc2[nH]1` [3c, ethyl 5-(2-(3-(p-tolyl)ureido)acetamido)-1H-indole-2-carboxylate], in the assay with calf thymus histone H3, the “Interaction with immobilized histone H3 (in words)” value is “no interaction”. The “Methylation of fPABP1 in cells” value in assay [4] is “strongly increase the methylation”. Also, the “Interaction with immobilized PABP1(437–488) (in words)” value at PABP1(437–488) was “no interaction”. Also, at CARM1, the “Effect on affinity … for CARM1/SAH complex” value is on record as “significantly affect the affinity” and the “Interaction with immobilized CARM1 (in words)” value is given as “no interaction”.

B1: PABP1(437–488) (domain or fragment, human, UniProt P11940 437-488, looked up)
chain: WTAQGARPHPFQNMPGAIRPAAPRPPFSTMRPASSQVPRVMSTQRVANTSTQ
As to B1, in assay [5], the Kd was 158 nM.
